{"source": "patent US8034843B2", "about": "“Compositions comprising cannabinoids for treatment of nausea, vomiting, emesis, motion sickness or like conditions” (priority 2002, dated 2011)", "key": {"[1]": {"experiment": "Stability of purified CBDA in solution", "type": "physicochemical", "text": "This undesirable decarboxylation of the purified material might be minimised by manipulation of CBDA at sub-ambient temperatures."}, "[2]": {"molecular_target": "CB2 (Peripheral receptors) (Homo sapiens, UniProt P34972)", "sequence (P34972 whole entry, species assumed)": "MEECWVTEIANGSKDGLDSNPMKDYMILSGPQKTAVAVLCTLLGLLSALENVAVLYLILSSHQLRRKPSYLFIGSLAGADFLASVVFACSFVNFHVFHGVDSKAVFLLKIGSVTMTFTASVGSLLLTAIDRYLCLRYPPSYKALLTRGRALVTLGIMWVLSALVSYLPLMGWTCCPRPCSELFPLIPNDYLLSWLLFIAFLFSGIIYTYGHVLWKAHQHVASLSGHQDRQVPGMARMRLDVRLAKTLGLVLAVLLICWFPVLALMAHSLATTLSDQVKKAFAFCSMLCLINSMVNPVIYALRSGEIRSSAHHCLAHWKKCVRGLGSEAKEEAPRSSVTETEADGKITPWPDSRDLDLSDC", "details": "cited from earlier work"}}, "data": [{"molecule": "C=C(C)[C@@H]1CCC(C)=C[C@H]1c1c(O)cc(CCCCC)c(C(=O)O)c1O", "note": "[CBDA]", "values": [{"measurement": "decarboxylation in solution (CBDA→CBD+CO2)", "setting": "[1]", "value": "slowly decarboxylates in solution"}]}, {"molecule": "CCCCCc1cc(O)c2c(c1)OC(C)(C)[C@@H]1CCC(C)=C[C@@H]21", "note": "[THC, delta^9-tetrahydrocannabinol]", "values": [{"measurement": "binding to CB2 receptors", "setting": "[2]", "value": "bound with high avidity"}]}]}
